Laboratory results reported in ChEMBL document CHEMBL4152225, “Dual-tail arylsulfone-based benzenesulfonamides differently match the hydrophobic and hydrophilic halves of human carbonic anhydrases active sites: Selective inhibitors for the tumor-associated hCA IX isoform” (Eur J Med Chem, 2018).

Legend:
Carbonic anhydrase 9 = Carbonic anhydrase 9 (Homo sapiens, UniProt Q16790); assay: Inhibition of recombinant human carbonic anhydrase 9 assessed as inhibition of CO2 hydration preincubated for 15 mins prior to testing by phenol red based stopped-flow assay
MCF7 = assay: Cytotoxicity against human MCF7 cells under hypoxic condition by MTT assay
MDA-MB-231 = assay: Cytotoxicity against human MDA-MB-231 cells under hypoxic condition by MTT assay

Structure (SMILES) | Ki (Carbonic anhydrase 9) [nM] | IC50 (MCF7) [nM] | IC50 (MDA-MB-231) [nM]
Cc1ccc(S(=O)(=O)C/C(=N\Nc2ccc(S(N)(=O)=O)cc2)c2ccccc2)cc1 | 39.5 | – | –
Cc1ccc(S(=O)(=O)C/C(=N\Nc2ccc(S(N)(=O)=O)cc2)c2ccsc2)cc1 | 56.3 | – | –
NS(=O)(=O)c1ccc(N/N=C(\CS(=O)(=O)c2ccccc2)c2ccc(Cl)cc2)cc1 | 34.8 | – | –
Cc1ccc(S(=O)(=O)C/C(=N\Nc2ccc(S(N)(=O)=O)cc2)c2ccc(Br)cc2)cc1 | 56.1 | – | –
Cc1ccc(S(=O)(=O)C/C(=N\Nc2ccc(S(N)(=O)=O)cc2)c2ccc([N+](=O)[O-])cc2)cc1 | 79.2 | – | –
Cc1ccc(/C(CS(=O)(=O)c2ccccc2)=N/Nc2ccc(S(N)(=O)=O)cc2)cc1 | 36.5 | – | –
Cc1ccc(/C(CS(=O)(=O)c2ccc(C)cc2)=N/Nc2ccc(S(N)(=O)=O)cc2)cc1 | 5.3 | 2330 | 5140
NS(=O)(=O)c1ccc(N/N=C(\CS(=O)(=O)c2ccccc2)c2ccc(Br)cc2)cc1 | 61.2 | – | –
Cc1ccc(S(=O)(=O)C/C(=N\Nc2ccc(S(N)(=O)=O)cc2)c2ccc(Cl)cc2)cc1 | 8.7 | 3900 | 18200
COc1cccc2c1C(=O)c1c(O)c3c(c(O)c1C2=O)C[C@@](O)(C(=O)CO)C[C@@H]3O[C@H]1C[C@H](N)[C@H](O)[C@H](C)O1 [DOXORUBICIN] | – | 370 | –

Continued by falling Ki (Carbonic anhydrase 9), values first:

Ki (Carbonic anhydrase 9) [nM] | Structure (SMILES) | IC50 (MCF7) [nM] | IC50 (MDA-MB-231) [nM]
132 | NS(=O)(=O)c1ccc(N/N=C(\CS(=O)(=O)c2ccccc2)c2ccc(-c3ccccc3)cc2)cc1 | – | –
79.3 | NS(=O)(=O)c1ccc(N/N=C(\CS(=O)(=O)c2ccccc2)c2ccco2)cc1 | – | –
71.6 | NS(=O)(=O)c1ccc(N/N=C(\CS(=O)(=O)c2ccccc2)c2ccc([N+](=O)[O-])cc2)cc1 | – | –
69.1 | NS(=O)(=O)c1ccc(N/N=C(\CS(=O)(=O)c2ccccc2)c2cc3ccccc3o2)cc1 | – | –
39.3 | NS(=O)(=O)c1ccc(N/N=C(\CS(=O)(=O)c2ccccc2)c2ccc3ccccc3c2)cc1 | – | –
27.6 | Cc1ccc(S(=O)(=O)C/C(=N\Nc2ccc(S(N)(=O)=O)cc2)c2ccc(F)cc2)cc1 | – | –
15.3 | Cc1ccc(S(=O)(=O)C/C(=N\Nc2ccc(S(N)(=O)=O)cc2)c2ccc3ccccc3c2)cc1 | – | –
7.5 | NS(=O)(=O)c1ccc(N/N=C(\CS(=O)(=O)c2ccccc2)c2ccc(F)cc2)cc1 | – | –
